Calls of active or inactive are those of the source. The calls are words filed in the database; no cut-off is given here.
Assays:
[1] = target: T1, DNA topoisomerase II (Homo sapiens) (UniProt P11388+Q02880); assay: Inhibition of DNA topoisomerase-2 (unknown origin) assessed as decrease in relaxation of supercoiled pRYG DNA at 12.5 to 100 uM after 50 mins by ethidium bromide staining-based agarose gel electrophoresis; type: protein assay
[2] = Cytotoxicity against human DLD cells assessed as inhibition of cell proliferation after 48 hrs by CellTiter-Glo assay; type: functional
[3] = target: T1, DNA topoisomerase II (Homo sapiens); assay: Binding affinity to p170 form of human DNA topoisomerase-2 at 50 nM in presence of UV irradiation after 60 mins by agarose gel electrophoresis; type: protein assay; conditions: tested as the 3H-labelled form
Escherichia coli = assay: Binding affinity to Escherichia coli supercoiled pRYG DNA assessed as reduction of DNA topoisomerase-1-mediated relaxation of supercoiled DNA at 1 to 10 uM by agarose gel electrophoresis
[4] = target: T1, DNA topoisomerase II (Homo sapiens); assay: Inhibition of DNA topoisomerase-2 (unknown origin) assessed as decrease in relaxation of supercoiled pRYG DNA at 1 to 10 uM after 50 mins by agarose gel electrophoresis; type: protein assay

Which inhibition [1] does the source give for `COc1ccc(N(C)c2nc(Cl)nc3ccccc23)cc1` here?
Its inhibition is “Active”.

With `COc1ccc(Nc2nc(Cl)nc3ccccc23)cc1` as the compound, how does the GI50 [2] read?
The GI50 was over 10 µM.

With `Cc1nc(N(C)c2ccc(N=[N+]=[N-])cc2)c2ccccc2n1` as the compound, how does the Activity [3] read?
The Activity was “Active”.

For `CC[n+]1c(-c2ccccc2)c2cc(N)ccc2c2ccc(N)cc21`, which Activity (Escherichia coli) is on record?
Its Activity is “Active”.

What about the inhibition [4] of the same compound?
The inhibition was “Active”.

Source: ChEMBL document CHEMBL3879884, “Compounds and therapeutical use thereof” (2005)
